Some test systems named below: HT29 colon; IGROV1 ovarian; SN12C renal; NCI-H23 lung; SF-539 CNS; HOP-92 NSCLC; LOX IMVI melanoma; RPMI-8226 leukemia; TK-10 renal.
Common to all, as to assay: NCI-60 cell line screen, 48 h

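Each compound was tested at five concentrations against cells in 96-well plates for 48 hours. GI50: concentration for 50% inhibition of growth. Definition used: TGI = concentration required for complete inhibition of growth.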

Regarding `CC(C)(C)c1cc(CCC(=O)Nc2ccc(Cl)cc2Cl)nc(N)n1`, the TGI in the assay with HT29 colon, in the assay with IGROV1 ovarian, with SN12C renal, in the assay on NCI-H23 lung, in the assay on SF-539 CNS and with HOP-92 NSCLC was > 100 µM throughout. In the assay with LOX IMVI melanoma, the TGI was > 100 µM.

As to `C=CC1=CC(C)C[C@]1(O)C(=O)OC` (some centres not stated), the GI50 with HT29 colon, in the assay with IGROV1 ovarian, in the assay with TK-10 renal, in the assay with SN12C renal, with NCI-H23 lung and with HOP-92 NSCLC was > 100 µM in each case. Moreover, the GI50 in the assay on LOX IMVI melanoma is > 100 µM. Moreover, the TGI was < 0.01 µM in the assay on RPMI-8226 leukemia and > 100 µM in the assay with SF-539 CNS.

With `Cc1nnc(N=Nc2c(O)[nH]c3ccccc23)n1N`, the TGI in the assay with HT29 colon, in the assay with IGROV1 ovarian, in the assay with RPMI-8226 leukemia, in the assay with TK-10 renal, in the assay with SN12C renal and in the assay with NCI-H23 lung was > 100 µM throughout. Besides, the TGI with SF-539 CNS and with LOX IMVI melanoma was > 100 µM each time.

In the case of `CC1=C(C(=O)CC(=O)C(=O)NC2C3CC4CC(C3)CC2C4)Sc2ccccc2N1` (configuration not stated), the TGI with HT29 colon, in the assay on IGROV1 ovarian, with RPMI-8226 leukemia, in the assay on TK-10 renal, with SN12C renal and in the assay with NCI-H23 lung was > 100 µM each time. For the same compound, the TGI in the assay with SF-539 CNS, with HOP-92 NSCLC and with LOX IMVI melanoma was > 100 µM throughout.

`CCCCCCCCCC(=O)Oc1cccc2onc(C)c12`: the TGI in the assay on HT29 colon, in the assay with IGROV1 ovarian, in the assay with RPMI-8226 leukemia, in the assay with TK-10 renal, in the assay with SN12C renal and in the assay with NCI-H23 lung was > 100 µM throughout. Moreover, the TGI in the assay with SF-539 CNS, with HOP-92 NSCLC and in the assay with LOX IMVI melanoma was > 100 µM each time.

For the compound `Cc1ccccc1NC(=O)C(=O)CC(=O)c1ccc([N+](=O)[O-])cc1`, the TGI in the assay on HT29 colon, with IGROV1 ovarian, in the assay on RPMI-8226 leukemia, in the assay on TK-10 renal, in the assay with SN12C renal and with NCI-H23 lung was > 100 µM each time. For the same compound, the TGI in the assay with SF-539 CNS, in the assay with HOP-92 NSCLC and in the assay on LOX IMVI melanoma was > 100 µM throughout.

With `CCOC(=O)C[C@@]12CCCNC1(C)CCc1ccccc12` (some centres not stated), the TGI with HT29 colon, in the assay on IGROV1 ovarian, in the assay with RPMI-8226 leukemia, in the assay on TK-10 renal, in the assay with SN12C renal and with SF-539 CNS was > 100 µM each time. Moreover, in the assay on LOX IMVI melanoma, the TGI is > 100 µM.

As to `CC(=O)[CH-]C(=O)c1ccccc1.CC(=O)[CH-]C(=O)c1ccccc1.[CH2-]CCC.[CH2-]CCC.[Sn+4]`, the GI50 was 1.73 µM in the assay on HT29 colon; 1.57 µM in the assay on IGROV1 ovarian; 0.22 µM with RPMI-8226 leukemia; 1.06 µM with TK-10 renal; 1.14 µM in the assay on SN12C renal; 0.476 µM in the assay on NCI-H23 lung. For the same compound, the GI50 in the assay with SF-539 CNS was 1.36 µM; with LOX IMVI melanoma it was 1.06 µM. Further, the TGI in the assay with HT29 colon was found to be 3.39 µM; in the assay on IGROV1 ovarian it was 3.28 µM; in the assay on RPMI-8226 leukemia, 0.567 µM; in the assay on TK-10 renal, 2.31 µM; in the assay with SN12C renal it was 2.68 µM; in the assay with NCI-H23 lung it was 1.77 µM. Also, the TGI in the assay on SF-539 CNS came out at 2.77 µM; in the assay on LOX IMVI melanoma it was 2.47 µM.

Turning to `C[N+](C)=c1nc(N2CCOCC2)ss1`, the TGI in the assay on HT29 colon, with IGROV1 ovarian, in the assay with TK-10 renal, in the assay with SN12C renal, in the assay on NCI-H23 lung and in the assay with SF-539 CNS was > 100 µM each time. Moreover, the TGI in the assay with HOP-92 NSCLC and in the assay on LOX IMVI melanoma was > 100 µM in each case.

For the compound `C/C(=N/NC(=O)CC(=O)N(C(=O)c1ccccc1Cl)c1ccc(C)cc1)c1cc2ccccc2oc1=O`, the TGI in the assay with HT29 colon, in the assay with IGROV1 ovarian, with TK-10 renal, in the assay on SN12C renal, in the assay with NCI-H23 lung and in the assay on SF-539 CNS was > 100 µM in each case. The TGI in the assay with HOP-92 NSCLC and in the assay with LOX IMVI melanoma was > 100 µM throughout.

Consider `O=C(O)[C@@H]1CCCC[C@@H]1C(=O)N(C1CCCCC1)C1CCCCC1`, for which the TGI in the assay with HT29 colon, in the assay on IGROV1 ovarian, in the assay on RPMI-8226 leukemia, in the assay with TK-10 renal, in the assay on SN12C renal and with NCI-H23 lung was > 100 µM throughout. Also, the TGI with SF-539 CNS, in the assay on HOP-92 NSCLC and in the assay with LOX IMVI melanoma was > 100 µM each time.

As to `COc1ccc(CC2=NCCc3cc(OC)c(OC)cc32)cc1Br`, the TGI in the assay on HT29 colon was > 100 µM; in the assay with TK-10 renal it was > 100 µM; in the assay with SN12C renal it was > 100 µM; with NCI-H23 lung it was > 100 µM; in the assay with SF-539 CNS, > 100 µM; in the assay with HOP-92 NSCLC, 33.7 µM. In the assay with LOX IMVI melanoma, this compound yielded a TGI of 30.3 µM.

For the compound `CC1(C)CC(=O)c2c(oc3cc(O)c(O)cc23)C1`, the TGI in the assay on HT29 colon is > 100 µM; with IGROV1 ovarian it was > 100 µM; in the assay with RPMI-8226 leukemia, 80.4 µM; in the assay with TK-10 renal, > 100 µM; in the assay on SN12C renal, > 100 µM; in the assay on SF-539 CNS, > 100 µM. The TGI was found to be 95.2 µM in the assay on HOP-92 NSCLC and 31.4 µM with LOX IMVI melanoma.

`NC(=O)C(=O)n1ncc(Cl)c(Cl)c1=O`: the TGI is 44.4 µM in the assay with HT29 colon; > 77.4 µM with IGROV1 ovarian; 51.9 µM with RPMI-8226 leukemia; 50.8 µM in the assay on TK-10 renal; 40.8 µM in the assay on SN12C renal; 52.9 µM in the assay on NCI-H23 lung. In addition, the TGI with SF-539 CNS is 86.1 µM; with HOP-92 NSCLC, > 57.8 µM; with LOX IMVI melanoma it was 56.6 µM.

For `c1ccc(NC[Si]23OCCN(CCO2)CCO3)cc1`, the TGI with HT29 colon, in the assay on IGROV1 ovarian, in the assay with RPMI-8226 leukemia, with TK-10 renal, in the assay on SN12C renal and with NCI-H23 lung was > 100 µM in each case. The TGI in the assay with SF-539 CNS and in the assay on HOP-92 NSCLC was > 100 µM in each case.

Turning to `COc1ccc2[nH]c3c(=O)[nH]ncc3c2c1`, the TGI with HT29 colon, in the assay with IGROV1 ovarian, in the assay on RPMI-8226 leukemia, with TK-10 renal, with NCI-H23 lung and in the assay on SF-539 CNS was > 100 µM each time. The TGI in the assay on HOP-92 NSCLC and in the assay on LOX IMVI melanoma was > 100 µM each time.

Turning to `NC(=O)c1c[se]c(C2OC(COP(=O)(O)CP(=O)(O)OCC3OC(n4cnc5c(N)ncnc54)C(O)C3O)C(O)C2O)n1` (configuration not stated), the TGI with HT29 colon, in the assay on IGROV1 ovarian, in the assay with SN12C renal, in the assay with NCI-H23 lung, in the assay on SF-539 CNS and with HOP-92 NSCLC was > 100 µM in each case.

For the compound `CC[P+]1(CC)CCCC1`, the TGI in the assay on HT29 colon, in the assay with IGROV1 ovarian, with RPMI-8226 leukemia, in the assay with TK-10 renal, in the assay with SN12C renal and with NCI-H23 lung was > 100 µM throughout. The TGI in the assay on SF-539 CNS and in the assay with LOX IMVI melanoma was > 100 µM each time.

`COc1cc(O)c(C(C)=O)c(O)c1`: the TGI in the assay with HT29 colon, with IGROV1 ovarian, in the assay with TK-10 renal, in the assay on SN12C renal, in the assay with NCI-H23 lung and in the assay on SF-539 CNS was > 100 µM in each case. Also, the TGI with HOP-92 NSCLC was 90.8 µM; in the assay on LOX IMVI melanoma it was > 100 µM.

As to `COc1ccc2c(c1)nc1n2C(c2ccc(F)cc2)SC1` (configuration not stated), the GI50 in the assay with IGROV1 ovarian was 26.5 µM; in the assay on RPMI-8226 leukemia, 14.8 µM; with TK-10 renal, 22.8 µM; in the assay with SN12C renal, 32.2 µM; in the assay with NCI-H23 lung it was 18.9 µM; in the assay on HOP-92 NSCLC, 23 µM. In addition, in the assay on LOX IMVI melanoma, the GI50 is 24.8 µM. The TGI in the assay on IGROV1 ovarian is 99.4 µM; in the assay on RPMI-8226 leukemia it was 66.3 µM; with TK-10 renal it was > 100 µM; in the assay on SN12C renal, > 100 µM; in the assay on NCI-H23 lung, > 100 µM; in the assay on HOP-92 NSCLC, > 100 µM. The same compound displayed a TGI in the assay with LOX IMVI melanoma of 61 µM.

Consider `CC1(C)OC(COCCOCCCCCO)C(COCCOCCCCCO)O1` (configuration not stated), for which the TGI in the assay with HT29 colon, in the assay with IGROV1 ovarian, with RPMI-8226 leukemia, in the assay on TK-10 renal, in the assay on SN12C renal and in the assay on NCI-H23 lung was > 100 µM in each case. Further, the TGI with LOX IMVI melanoma is > 100 µM.

Turning to `O=[N+]([O-])C1C2C=CC(C2)[C@H]1c1ccc(Cl)cc1Cl` (some centres not stated), the TGI with HT29 colon was 57.4 µM; in the assay on RPMI-8226 leukemia it was 69.1 µM; in the assay on TK-10 renal, > 100 µM; with SN12C renal, > 100 µM; in the assay on NCI-H23 lung it was > 100 µM; with SF-539 CNS, > 100 µM. The TGI in the assay on HOP-92 NSCLC and with LOX IMVI melanoma was > 100 µM throughout.

With `COc1nc2c(c(O)c(C)c(=O)n2OC2OC(COC(C)=O)C(OC(C)=O)C(OC(C)=O)C2OC(C)=O)c(=O)n1C` (configuration not stated), the TGI with HT29 colon, with IGROV1 ovarian, with TK-10 renal, with SN12C renal, in the assay on NCI-H23 lung and with SF-539 CNS was > 100 µM throughout. In addition, the TGI with LOX IMVI melanoma is > 100 µM.

The values are drawn from PubChem BioAssay (NCI).
